Data reported in publication PMC10076467 (EJNMMI Research, 2023).
Read-outs that look alike come from different tables or passages of the source.

What was measured:
GluN2B receptors [1] = molecular target: T1, GluN2B receptors (Rattus norvegicus, UniProt P35439+Q00960); assay: PET displacement / pre-blocking of ^11C-NR2B-Me radioligands with Ro-25-6981, Lassen plots; assay type: in vivo
T1 construct: from tissue; host or cells: brain of living male rats (PET imaging)
Description: (§1) For radioligand injection, a polyethylene catheter (PE 10) was inserted into the penile vein of a male rat and then secured with tissue adhesive and tape. […] Body temperature was monitored with a rectal probe. All PET scans were performed on a microPET Focus 220 scanner (Siemens Medical Solutions) (7,8). Data were acquired in listmode and reconstructed with Fourier rebinning + 2D filtered backprojection. A transmission scan was acquired before radioligand injection for attenuation correction. Dynamic scanning began at the time of a one-minute intravenous bolus injection of the radioligand under study (55 ± 19 MBq; volume 0.2 to 1.0 mL). The injected mass dose was 3 ± 1 nmol/kg. Challenge agents were administered intravenously 10 minutes before the radioligand for pre-blocking studies or 10 minutes after the radioligand for displacement studies. Tomographic images were analyzed with pixel-wise modeling computer software (PMOD 2.6; PMOD Group). Regions-of-interest in the brain were delineated, and time-activity curves calculated as SUV versus time.
(§2) Pre-blocking and displacement experiments were performed to assess radioligand target engagement and radioligand selectivity in vivo. […] Areas-under the curve (AUCs) from time-activity curves between 20 and 90 minutes were calculated for each radioligand. AUCs obtained from the same production of radioligand were scaled to the value (or mean value) for the baseline experiment to give relative values (relative AUC20–90 min). […] Where data permitted, the dose-response curves were fitted with GraphPad Prism software (version 8.1.1; GraphPad) to estimate the ED50 values. A dummy value of 100 pmol per kg body weight was used for zero concentration of the challenge agent in the construction of these dose-response curves. Numerical data are expressed as mean ± S.D. for n>2, or as mean and range for n = 2.

GluN2B receptors [2] = molecular target: T1, GluN2B receptors; assay: ED50 for pre-blocking of GluN2B radioligand uptake in rat whole brain (PET); assay type: in vivo; details: for ED50 in rat whole brain in vivo ^11C-(−)-NR2B-Me: radioligand ^11C-(−)-NR2B-Me
Description: as §1, §2

σ1 receptor = details: cited from earlier work
σ2 receptor = details: cited from earlier work
guinea pig σ1 receptor = guinea pig σ1 receptor (Cavia porcellus, UniProt Q60492); assay: PDSP σ1 receptor binding
Sequence of guinea pig σ1 receptor (Q60492 whole entry): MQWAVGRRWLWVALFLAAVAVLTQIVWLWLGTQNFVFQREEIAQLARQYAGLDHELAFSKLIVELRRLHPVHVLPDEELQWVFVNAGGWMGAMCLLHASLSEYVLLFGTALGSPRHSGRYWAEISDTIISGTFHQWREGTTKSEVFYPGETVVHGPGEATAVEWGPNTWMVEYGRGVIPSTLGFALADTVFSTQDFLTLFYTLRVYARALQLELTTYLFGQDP
Description: (§3) NR2B-Me was submitted to the PDSP for assessment of binding affinity against a wide range of other receptors and binding sites. A full listing of these receptors and binding sites is given in the Supplemental Results. Detailed assay protocols are available at the PDSP website (http://pdsp.cwru.edu).
(§4) Assessment of Binding Affinity against a Wide Range of Other Receptors and Binding Sites. NR2B-Me was submitted to the National Institute of Mental Health Psychoactive Drug Screening program (NIMH-PDSP) to assess binding affinity against a wide range of other receptors and binding sites (5-HT1A, 1B, 1D, 1E, 2A, 2A agonist, 2A antagonist, 2B, 2B agonist, 2B antagonist, 2C, 2C agonist, 2C antagonist, 3, 5A, 6, 7; α2; α2β2, α2β2, α3β2, α3β4, α4β2, α4β4, α7; α1A, 1A agonist, 1B, 1B agonist, 1B antagonist, 2A-2C; AMPA*; β1-3; BZPa1-3, a5, a6, rat brain site; Ca^2+-Channel; CB1-2, D1, 2, 2 agonist, 2 antagonist, 3-5; DAT; DOR; EP1-4; GABAA,B; GPR40,41,43; H1-4; HERG; IMIDAZOLINE 1; KA-R*; KOR, KORagonist, antagonist; M1, 1 agonist, 1 antagonist, 2, 3, 3 agonist, 3 antagonist, 4, 5, 5 agonist, 5 antagonist; MDR 1; mGluR1A,2,4,5,5-cloned,5-rat brain,6,8; MOR; Na^+-Channel; NET; NK1, 1 antagonist, 2, 2 antagonist, 3, 3 antagonist; NMDA; NMDA/MK801; NT-1; OXYTOCINagonist, antagonist; PAR1agonist, antagonist; PCP; PKCA, B, D, E, G; PTHR2, Purinergicagonist, antagonist; SET; σ1,2; V1, 1 agonist, 1 antagonist, 2, 2 agonist, 2 antagonist, 3, 3 agonist, 3 antagonist, VMAT1, 2).

PC12 cell σ2 receptors = molecular target: T2, PC12 cell σ2 receptors (Rattus norvegicus, UniProt Q5U3Y7); assay: PDSP σ2 receptor binding
T2 construct: endogenous in cells; host or cells: PC12 cells
T2 sequence (Q5U3Y7 1-176): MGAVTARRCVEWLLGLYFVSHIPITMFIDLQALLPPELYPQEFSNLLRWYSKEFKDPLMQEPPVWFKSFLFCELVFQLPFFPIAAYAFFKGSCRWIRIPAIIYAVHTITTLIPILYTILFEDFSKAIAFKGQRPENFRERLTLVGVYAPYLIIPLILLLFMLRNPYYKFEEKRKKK
Description: as §3, §4

GluN2B = molecular target: T3, GluN2B (Homo sapiens, UniProt Q05586+Q13224); details: cited from earlier work
T3 construct: expressed in transfected cells; host or cells: transiently transfected mouse fibroblast cells (membrane homogenate)
T3 sequence (Q13224 27-1484, species assumed, other chains not shown): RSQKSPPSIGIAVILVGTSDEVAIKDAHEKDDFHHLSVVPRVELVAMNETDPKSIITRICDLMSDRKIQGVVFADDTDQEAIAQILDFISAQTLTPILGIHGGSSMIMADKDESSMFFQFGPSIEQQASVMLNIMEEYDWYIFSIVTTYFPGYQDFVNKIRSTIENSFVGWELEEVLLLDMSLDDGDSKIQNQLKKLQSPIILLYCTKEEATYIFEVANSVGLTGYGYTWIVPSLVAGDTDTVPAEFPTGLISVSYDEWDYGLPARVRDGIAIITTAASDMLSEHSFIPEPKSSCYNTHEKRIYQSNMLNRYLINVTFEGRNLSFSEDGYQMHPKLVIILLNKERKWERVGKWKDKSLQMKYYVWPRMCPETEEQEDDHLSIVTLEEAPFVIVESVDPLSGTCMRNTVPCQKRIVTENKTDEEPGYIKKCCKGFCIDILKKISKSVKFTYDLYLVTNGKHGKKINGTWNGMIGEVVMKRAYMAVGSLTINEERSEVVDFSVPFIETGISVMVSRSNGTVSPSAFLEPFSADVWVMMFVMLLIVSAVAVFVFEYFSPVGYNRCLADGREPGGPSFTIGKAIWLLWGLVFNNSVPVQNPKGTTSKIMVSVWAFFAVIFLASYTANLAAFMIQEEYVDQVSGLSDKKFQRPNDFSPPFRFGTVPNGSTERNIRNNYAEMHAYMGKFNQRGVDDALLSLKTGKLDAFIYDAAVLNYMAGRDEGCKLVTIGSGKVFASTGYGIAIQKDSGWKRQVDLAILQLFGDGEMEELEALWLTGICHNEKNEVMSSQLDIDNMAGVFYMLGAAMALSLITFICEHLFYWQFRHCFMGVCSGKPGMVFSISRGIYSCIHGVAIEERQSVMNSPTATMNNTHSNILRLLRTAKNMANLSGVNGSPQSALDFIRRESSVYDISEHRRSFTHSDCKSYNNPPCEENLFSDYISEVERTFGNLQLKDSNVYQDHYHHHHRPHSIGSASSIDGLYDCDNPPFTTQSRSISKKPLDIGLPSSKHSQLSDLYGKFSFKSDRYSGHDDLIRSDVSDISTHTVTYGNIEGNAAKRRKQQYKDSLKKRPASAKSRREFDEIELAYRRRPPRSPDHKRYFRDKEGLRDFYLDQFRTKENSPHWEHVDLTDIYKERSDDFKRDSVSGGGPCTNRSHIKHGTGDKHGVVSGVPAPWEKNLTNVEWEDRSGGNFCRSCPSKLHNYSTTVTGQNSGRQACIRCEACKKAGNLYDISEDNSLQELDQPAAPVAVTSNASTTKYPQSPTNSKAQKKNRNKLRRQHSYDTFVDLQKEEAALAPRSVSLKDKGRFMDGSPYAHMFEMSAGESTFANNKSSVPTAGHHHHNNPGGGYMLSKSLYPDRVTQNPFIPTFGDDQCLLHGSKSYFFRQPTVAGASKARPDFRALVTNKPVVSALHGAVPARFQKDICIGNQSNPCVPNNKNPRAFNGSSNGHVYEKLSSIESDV

[3] = set-up: method as in PMID 30030340; details: rhesus monkeys, PET; cited from earlier work
[4] = rat, cited from earlier work
[5] = 30 min after intravenous injection
[6] = 45 min after intravenous injection

T1 sequence (Q00960 27-1482, other chains not shown): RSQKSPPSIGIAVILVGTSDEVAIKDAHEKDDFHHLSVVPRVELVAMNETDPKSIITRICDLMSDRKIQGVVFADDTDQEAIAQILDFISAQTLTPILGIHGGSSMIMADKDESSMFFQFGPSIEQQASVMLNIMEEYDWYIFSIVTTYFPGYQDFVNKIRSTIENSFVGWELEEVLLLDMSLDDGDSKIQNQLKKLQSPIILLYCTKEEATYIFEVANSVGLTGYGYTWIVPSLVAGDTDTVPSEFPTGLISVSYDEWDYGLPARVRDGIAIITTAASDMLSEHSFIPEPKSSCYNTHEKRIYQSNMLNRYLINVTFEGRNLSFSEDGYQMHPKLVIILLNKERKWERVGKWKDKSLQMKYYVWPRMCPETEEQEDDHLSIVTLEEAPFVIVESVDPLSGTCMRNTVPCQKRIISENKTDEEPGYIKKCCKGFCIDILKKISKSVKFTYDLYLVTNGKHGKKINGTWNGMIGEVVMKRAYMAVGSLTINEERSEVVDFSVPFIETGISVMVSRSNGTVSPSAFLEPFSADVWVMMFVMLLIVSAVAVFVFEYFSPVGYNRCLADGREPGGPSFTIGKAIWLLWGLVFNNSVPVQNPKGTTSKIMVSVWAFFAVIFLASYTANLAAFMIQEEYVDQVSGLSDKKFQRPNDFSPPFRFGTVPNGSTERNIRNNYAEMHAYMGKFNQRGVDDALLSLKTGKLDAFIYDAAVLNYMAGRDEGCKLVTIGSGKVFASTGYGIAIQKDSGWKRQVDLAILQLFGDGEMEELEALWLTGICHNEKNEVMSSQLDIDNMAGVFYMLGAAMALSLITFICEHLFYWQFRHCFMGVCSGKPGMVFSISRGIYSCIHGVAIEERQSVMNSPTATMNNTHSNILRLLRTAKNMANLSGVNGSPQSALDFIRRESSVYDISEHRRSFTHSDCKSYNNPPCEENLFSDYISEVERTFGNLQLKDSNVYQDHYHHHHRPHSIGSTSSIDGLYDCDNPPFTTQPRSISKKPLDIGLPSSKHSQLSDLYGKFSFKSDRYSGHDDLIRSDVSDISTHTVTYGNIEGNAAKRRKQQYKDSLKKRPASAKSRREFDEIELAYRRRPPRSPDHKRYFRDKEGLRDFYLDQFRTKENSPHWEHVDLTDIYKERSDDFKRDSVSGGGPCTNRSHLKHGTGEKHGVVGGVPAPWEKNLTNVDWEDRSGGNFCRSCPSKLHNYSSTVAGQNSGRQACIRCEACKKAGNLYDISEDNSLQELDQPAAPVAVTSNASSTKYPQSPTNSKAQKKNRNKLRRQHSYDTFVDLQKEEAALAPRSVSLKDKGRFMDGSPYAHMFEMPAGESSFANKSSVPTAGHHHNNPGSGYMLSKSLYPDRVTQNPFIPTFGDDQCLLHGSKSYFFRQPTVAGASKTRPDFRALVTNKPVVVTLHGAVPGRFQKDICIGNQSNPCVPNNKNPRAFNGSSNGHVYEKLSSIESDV

With `COc1ccc2c(c1)CCN(CCCCc1ccc([11CH3])cc1)CC2O` (stereo not drawn) [^11C-(+)-NR2B-Me] the “BPND (SUVBL/SUVND−1), whole rat brain” value (GluN2B receptors [1]; Lassen (SUV) plots) was 5, the “non-displaceable binding (X-axis intercept of Lassen plots)” value (GluN2B receptors [1]; rat brain, pre-blocking with 0.25 mg/kg Ro-25-6981, on average) was “about 0.42 SUV” and the “displacement from peak value at 90 min” value (GluN2B receptors [1]; rat whole brain, Ro-25-6981 0.25 mg/kg i.v. 10 min after radioligand, n = 1) was 46%.
With `COc1ccc(CCN2CCN(CCCc3ccccc3)CC2)cc1OC` [SA4503] the “effect of pre-administration on whole rat brain radioactivity uptake of GluN2B radioligands” value (GluN2B receptors [2]; ^11C-NR2B-Me enantiomers (also ^11C-(S)-NR2B-SMe)) was “strong pre-blocking effects”, the “ED50 in rat whole brain in vivo ^11C-(+)-NR2B-Me” value (GluN2B receptors [2]; pre-blocking, radioligand ^11C-(+)-NR2B-Me, AUC 20-90 min) was 41 nmol/kg and the “ED50 in rat whole brain in vivo ^11C-(−)-NR2B-Me” value (GluN2B receptors [2]; pre-blocking, AUC 20-90 min) was 43 nmol/kg. For the same compound, the Ki (σ1 receptor; reference radioligand ^3H-pentazocine, ref 38, 43, read-out: Ki for σ1) was 4.6 nM, the Ki (σ1 receptor; reference radioligand ^3H-pentazocine, ref 41, 42, read-out: Ki for σ1) was 17.4 nM and the Ki (σ2 receptor; reference radioligand ^3H-DTG, ref 38, 43, read-out: Ki for σ2) was 63 nM. The Ki (σ2 receptor; reference radioligand ^3H-DTG, ref 41, 42, read-out: Ki for σ2) was 1780 nM.
In the case of `CC(C)=CCN1CC[C@]2(C)c3cc(O)ccc3C[C@H]1[C@H]2C` [(+)-Pentazocine], the “ED50 in rat whole brain in vivo ^11C-(−)-NR2B-Me” value (GluN2B receptors [2]; pre-blocking, AUC 20-90 min) is reported as greater than 1000 nmol/kg.
Work on `COc1ccc2c(c1)CCN(CCCCc1ccc(C)cc1)CC2O` (single isomer, unassigned; (-)) [(−)-NR2B-Me] yielded a Ki (guinea pig σ1 receptor) of 42 nM and a Ki (PC12 cell σ2 receptors) of 110 nM.
In the case of `C[C@@H](CN1CCC(Cc2ccccc2)CC1)[C@@H](O)c1ccc(O)cc1` [Ro-25-6981], the Ki (GluN2B) is given as 9 nM.
For `COc1ccc2c(c1)CCN(CCCCc1ccccc1[18F])C[C@@H]2O` [^18F-(R)-OF-Me-NB1], the “SUVR relative to cerebellum, cortex” value [3] is listed as 1.37, the “SUVR relative to cerebellum, hippocampus” value [3] is listed as 1.36 and the “SUVR relative to cerebellum, striatum” value [3] is listed as 1.30. The “SUVR relative to cerebellum, thalamus” value [3] was 1.33, the “radioactivity in cerebellum as % of that in cortex” value [4, 5] was 73% and the “radioactivity in cerebellum as % of that in hippocampus” value [4, 5] was 74%. For the same compound, the “radioactivity in cerebellum as % of that in striatum” value [4, 5] was 77% and the “radioactivity in cerebellum as % of that in thalamus” value [4, 5] was 75%.
For `Oc1ccc2c(c1)CCN(CCCCc1ccc([18F])cc1)C[C@@H]2O` [(R)-^18F-PF-NB1], the “radioactivity in cerebellum as % of that in cortex” value [4, 6] is given as 85%, the “radioactivity in cerebellum as % of that in hippocampus” value [4, 6] is given as 110% and the “radioactivity in cerebellum as % of that in striatum” value [4, 6] is given as 95%. The “radioactivity in cerebellum as % of that in thalamus” value [4, 6] was 92%.
For `COc1ccc2c(c1)CCN(CCCCc1ccc(SC)cc1)C[C@@H]2O` [(R)-NR2B-SMe], the Ki (σ1 receptor; read-out: σ1 Ki) is given as 88 nM and the Ki (σ2 receptor; read-out: σ2 Ki) is given as 110 nM.
For (+)-SKF10047, the Ki (σ1 receptor; reference radioligand ^3H-pentazocine, ref 48, read-out: Ki for σ1) is given as 48 nM and the Ki (σ2 receptor; reference radioligand ^3H-DTG, ref 48, read-out: Ki for σ2) is given as 625 nM.
